Data published in paper PMC7724566, “Prospects for Clinical Development of Stat5 Inhibitor IST5-002: High Transcriptomic Specificity in Prostate Cancer and Low Toxicity In Vivo” (Cancers, 2020).

What was measured:
JAK2 = JAK2 (Homo sapiens, UniProt O60674); assay: Cell-based tyrosine phosphorylation of Jak kinases (IP/immunoblot); design: endogenous in cells; host or cells: DU145 and CWR22Pc; conditions: 6 µM, 6 h
Text: (§1) Figure 5 Both IST5 and IST5-M suppress dimerization of Stat5 with similar efficacies in prostate cancer cells. (A), IST5 and IST5-M inhibit equally potently dimerization of Stat5 in native-gel-based Stat5 dimerization assay. CWR22Rv1 cells were transfected with STAT5A-eYFP (Stat5 wild type), STAT5A-N642H-eYFP (constitutive activated Stat5 by N642H mutation, as a positive control) or STAT3-eYFP (Stat3 wild type, as a negative control) constructs for 3 days. CWR22Rv1 cells were serum-starved for 16 h, pretreated with vanadate (1 mM) for 2 h, followed by treatment with vehicle, IST5 and IST5-M (1 µM) for 6 h and stimulation with Prl (10 nM) for 1 h. Dimerization of Stat5 was analyzed by detection of the eYFP fluorescence of the native Coomassie gel. (B), IST5 and IST5-M inhibited cytokine-induced dimerization of Stat5 with high efficacy in PC cells. PC-3 cells were co-transfected with pCMV-3Flag-Stat5a, pCMV-3Myc-Stat5a, and pPrlR plasmids. Cells were serum-starved for 16 h, pretreated with IST5, IST5-M or vehicle at indicated concentrations for 2 h, followed by stimulation with Prl (10 nM) for 30 min. Anti-MYC mAb was utilized to immunoprecipitate the MYC-tagged Stat5a and blotted with anti-FLAG mAb or anti-MYC mAb, as indicated. […] (C), densitometric analyses of the Stat5 dimerization data based on co-immunoprecipitations and immunoblotting in (B). […] Prostate cancer cells were treated with IST5 (6 µM) or vehicle for 6 h. Jak1, Jak2, Jak3 and Tyk2 were immunoprecipitated and blotted with anti-phospho-tyrosine, Jak1, Jak2, Jak3 and Tyk2 antibodies. Whole cell lysates (WCL) were immunoblotted for actin. (E), differences in posttranslational modifications were detected between native and recombinant STAT5a using mass spectrometry. Native STAT5a from CWR22Rv1 cells and recombinant STAT5a from E. coli were gel-purified, digested using trypsin, and analyzed by bottom-up mass spectrometry. Native full-length STAT5a (blue) is show with recombinant STAT5A highlighted (red). Sites of acetylation and phosphorylation from the respective sources are noted including two previously published sites of phosphorylation (asterisk).
(§2) Given that IST5 suppresses phosphorylation of Stat5 in PC cells, it is possible that IST5 inhibits the kinase(s) responsible for Stat5 phosphorylation and activation in PC cells. To evaluate if IST5 affects kinase activity in cancer cells, we tested kinase inhibitory activity of IST5 in two custom-tailored panels including 54 relevant kinases (Table 1), including Jak1, Jak2, Jak3, Tyk2, Abl1, Abl2, Lck, Fyn, Src and TrkB/C. In addition, we further tested if IST5 inhibits tyrosine phosphorylation of Jak1, Jak2, Jak3 or Tyk2 using a cell-based assay (Figure 5D), where phosphorylation of the kinase is indicative of enzymatic kinase activity. DU145 and CWR22Rv1 cells were treated with IST5 (6 µM) for 6 h followed by immunoprecipitation of Jak1, Jak2, Jak3 and Tyk2 and immunoblotting with anti-phospho-tyrosine antibody. […] Collectively, these findings indicate that the inhibitory effect of IST5 on Stat5 phosphorylation in cancer cells is not due to inhibition of Jak2 or other key kinases including Jak1, Jak3, Tyk2, Src, Lck, Fyn, TrkB/C, Abl1 or Abl2 (Table 1, Figure 5D).
(§3) Cell pellets were solubilized in the lysis buffer (10 mM Tris-HCl (pH 7.6), 5 mM EDTA, 50 mM sodium chloride, 30 mM sodium pyrophosphate, 50 mM sodium fluoride, 1 mM sodium orthovanadate, 1% Triton X-100, 1 mM phenylmethylsulfonyl fluoride, 5 µg/mL aprotinin, 1 µg/mL pepstatin A and 2 µg/mL leupeptin), and protein concentrations of clarified cell lysates were determined by a simplified Bradford method (Bio-Rad, Hercules, CA, USA). The whole cell lysates were immunoprecipitated with polyclonal antibodies (Table S1) followed by incubation with protein A-Sepharose beads (GE Healthcare, Chicago, IL, USA). […]

JAK1 = JAK1 (Homo sapiens, UniProt P23458); assay: as above; design: endogenous in cells; host or cells: DU145 and CWR22Pc; conditions: 6 µM, 6 h
Text: as §1, §2, §3

Chain of JAK1 (P23458 whole entry): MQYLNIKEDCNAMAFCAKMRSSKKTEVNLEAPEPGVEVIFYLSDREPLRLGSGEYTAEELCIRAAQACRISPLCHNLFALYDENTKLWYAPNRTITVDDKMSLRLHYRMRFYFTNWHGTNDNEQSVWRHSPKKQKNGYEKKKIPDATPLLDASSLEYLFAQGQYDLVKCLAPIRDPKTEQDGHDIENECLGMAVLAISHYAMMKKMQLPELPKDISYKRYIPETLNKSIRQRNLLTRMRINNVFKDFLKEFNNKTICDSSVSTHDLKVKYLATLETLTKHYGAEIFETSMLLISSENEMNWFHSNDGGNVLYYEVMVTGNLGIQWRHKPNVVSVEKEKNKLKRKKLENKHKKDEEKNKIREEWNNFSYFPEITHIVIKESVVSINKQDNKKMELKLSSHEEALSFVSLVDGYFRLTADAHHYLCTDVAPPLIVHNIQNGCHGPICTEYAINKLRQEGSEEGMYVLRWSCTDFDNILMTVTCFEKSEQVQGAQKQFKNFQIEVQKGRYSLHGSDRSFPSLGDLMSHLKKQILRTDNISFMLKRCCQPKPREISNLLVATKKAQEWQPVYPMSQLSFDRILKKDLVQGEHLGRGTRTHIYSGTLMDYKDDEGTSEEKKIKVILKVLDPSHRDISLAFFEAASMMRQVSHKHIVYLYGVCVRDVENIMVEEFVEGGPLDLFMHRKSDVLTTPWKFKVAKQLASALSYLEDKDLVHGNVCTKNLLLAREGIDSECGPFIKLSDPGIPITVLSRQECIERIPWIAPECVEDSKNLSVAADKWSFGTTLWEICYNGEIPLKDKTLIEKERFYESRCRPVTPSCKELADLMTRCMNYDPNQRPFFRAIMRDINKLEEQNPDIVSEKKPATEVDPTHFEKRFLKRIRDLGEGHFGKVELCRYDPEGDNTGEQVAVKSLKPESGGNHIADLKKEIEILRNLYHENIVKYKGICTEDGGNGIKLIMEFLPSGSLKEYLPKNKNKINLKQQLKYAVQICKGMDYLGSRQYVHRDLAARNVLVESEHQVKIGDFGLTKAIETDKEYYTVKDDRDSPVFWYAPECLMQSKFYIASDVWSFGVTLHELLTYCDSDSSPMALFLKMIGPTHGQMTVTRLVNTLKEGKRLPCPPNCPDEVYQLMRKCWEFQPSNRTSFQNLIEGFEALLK
Chain of JAK2 (O60674 whole entry): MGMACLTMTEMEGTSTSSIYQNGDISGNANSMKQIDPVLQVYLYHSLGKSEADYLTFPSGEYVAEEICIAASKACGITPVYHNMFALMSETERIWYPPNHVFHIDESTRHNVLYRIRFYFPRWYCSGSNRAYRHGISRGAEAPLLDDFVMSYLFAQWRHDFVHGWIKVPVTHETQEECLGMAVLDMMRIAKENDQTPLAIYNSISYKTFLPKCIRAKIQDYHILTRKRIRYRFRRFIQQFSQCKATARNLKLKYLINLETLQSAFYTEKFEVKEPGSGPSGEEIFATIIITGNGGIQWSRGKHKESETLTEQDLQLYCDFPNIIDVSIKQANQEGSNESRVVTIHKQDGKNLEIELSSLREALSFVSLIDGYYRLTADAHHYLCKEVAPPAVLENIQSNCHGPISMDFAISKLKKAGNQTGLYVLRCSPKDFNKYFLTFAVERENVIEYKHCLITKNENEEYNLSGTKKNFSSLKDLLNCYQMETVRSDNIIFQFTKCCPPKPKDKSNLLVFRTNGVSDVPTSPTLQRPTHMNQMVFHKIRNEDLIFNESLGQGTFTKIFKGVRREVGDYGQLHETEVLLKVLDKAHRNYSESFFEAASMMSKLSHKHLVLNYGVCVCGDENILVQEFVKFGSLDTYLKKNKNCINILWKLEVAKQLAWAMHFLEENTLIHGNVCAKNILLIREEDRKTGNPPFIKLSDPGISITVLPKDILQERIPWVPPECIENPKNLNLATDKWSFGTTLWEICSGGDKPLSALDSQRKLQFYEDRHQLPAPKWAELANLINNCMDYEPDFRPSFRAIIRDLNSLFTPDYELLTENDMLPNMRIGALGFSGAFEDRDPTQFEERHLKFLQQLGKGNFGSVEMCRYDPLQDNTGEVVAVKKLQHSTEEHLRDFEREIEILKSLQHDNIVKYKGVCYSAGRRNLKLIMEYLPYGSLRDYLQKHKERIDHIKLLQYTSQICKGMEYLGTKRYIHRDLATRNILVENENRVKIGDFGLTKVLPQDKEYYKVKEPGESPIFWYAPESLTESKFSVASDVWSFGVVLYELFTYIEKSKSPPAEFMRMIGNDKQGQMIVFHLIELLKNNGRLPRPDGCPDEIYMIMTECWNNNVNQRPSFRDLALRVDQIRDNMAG

O=P(O)(O)OCC1OC(n2cnc3c(NCc4ccccc4)ncnc32)C(O)C1O (stereo not shown) [IST5]
did not alter: phosphorylation of Jak2 (JAK2; CWR22Pc cells) | phosphorylation of Jak2 (JAK2; DU145 cells) | phosphorylation of Jak1 (JAK1; CWR22Pc cells) | phosphorylation of Jak1 (JAK1; DU145 cells)
